Laboratory results taken from paper PMC8533299, “Synthesis, In Silico Study, and Anti-Cancer Activity of Thiosemicarbazone Derivatives” (Biomedicines, 2021).
“And” between values parts separate entries of the source, which are not always exact repeats. Equal entries are not always repeated.

What was measured:
[1] = tested on: gene expression in EAC cells; assay: RT-qPCR gene expression in EAC cells; type: cell-based, mouse
Description: (§1) Total mRNA was isolated and extracted by Trizol reagent as described in an earlier method. RevertAid First Strand cDNA synthesis kit (Thermo Fisher Scientific, Waltham, MA, USA) was used to synthesize cDNA in a total reaction volume of 20 μL containing oligo-dT primers, RiboLock RNase inhibitor, and reverse transcriptase. Gene-specific primers were used to amplify cDNAs in RT-qPCR machine (Applied Biosystems, Waltham, MA, USA).

[2] = MTT cytotoxicity test on NIH-3T3 cells; type: cell-based, Mouse; settings: mouse, NIH/3T3 fibroblast cells
Description: (§2) The in vitro anticancer activities of the synthesized compounds were conducted using different cancerous and non-cancerous cell lines viz B16-F0 (Mouse melanoma), mouse Ehrlich Ascites Carcinoma (EAC), MCF-7 (Human breast cancer), MCF-10A (Human breast epithelial cells), and NIH/3T3 (Mouse fibroblast cells). All cell lines were procured from the National Centre for Cell Science, Pune, India. The procured cells were cultured in a six-well culture plate with Dulbecco’s Modified Eagle’s Medium (DMEM) supplemented with 10% fetal bovine serum in a humid CO2 incubator with 5% carbon dioxide at 37 °C.
(§3) The anti-cancer effect and cytotoxicity of both 3-MBTSc and 4-NBTSc compounds were evaluated against different cancerous (MCF-7, EAC, B16-F0 cells) and noncancerous cells (MCF-10A, NIH-3T3 cells) using MTT test. In brief, the stock solutions of both the tested compounds were prepared by dissolving 1 mg of each compound in 1 mL of DMSO separately. Then, four different concentrations (5, 10, 12, and 20 µg/mL) of both compounds were used during the test along with the negative control. Also, 10 μg/mL of doxorubicin (Dox) was used as the positive control during the experiment. Both untreated and treated cells were incubated for next 24 and 48 h. Then, all the steps during the whole experiment were carried out by our earlier reported procedure. Later, the absorbance values were measured by an ELISA reader (Biorad, Hercules, CA, USA) at 570 nm wavelength using secondary wavelength as a reference at 620 nm and the percentages of cell viability was calculated using the following formula [59, 60, 61]. Cell viability (%)= Mean absorbance of treated cells/Mean absorbance of untreated cells × 100

[3] = tested on: NIH/3T3 (Mouse fibroblast cells); assay: MTT cytotoxicity test on NIH-3T3 cells; type: cell-based; settings: 48 h
Description: as §2, §3

[4] = tested on: gene expression in B16-F0 melanoma cells; assay: RT-qPCR gene expression in B16-F0 cells; type: cell-based, Mouse; settings: for BCl2 Treated (RQ value) / BRCA1 Treated (RQ value) / Bax Treated (RQ value) / Caspase-3 Treated (RQ value) / Dmp1 Treated (RQ value) / Fos Treated (RQ value) / MTS 1 Treated (RQ value) / Mdm2 Treated (RQ value) / PKC Treated (RQ value) / PTEN Treated (RQ value) / RAS Treated (RQ value) / p19 Arf Treated (RQ value) / p21 Treated (RQ value) / p53 Treated (RQ value) / pRB Treated (RQ value): B16-F0 cells treated, GAPDH housekeeping gene; for BCl2 Fold Change (B16-F0 treated-B16-F0 untreated) / BRCA1 Fold Change (B16-F0 treated-B16-F0 untreated) / Bax Fold Change (B16-F0 treated-B16-F0 untreated) / Caspase-3 Fold Change (B16-F0 treated-B16-F0 untreated) / Dmp1 Fold Change (B16-F0 treated-B16-F0 untreated) / MTS 1 Fold Change (B16-F0 treated-B16-F0 untreated) / Mdm2 Fold Change (B16-F0 treated-B16-F0 untreated) / PTEN Fold Change (B16-F0 treated-B16-F0 untreated) / p19 Arf Fold Change (B16-F0 treated-B16-F0 untreated) / p21 Fold Change (B16-F0 treated-B16-F0 untreated) / p53 Fold Change (B16-F0 treated-B16-F0 untreated) / pRB Fold Change (B16-F0 treated-B16-F0 untreated): B16-F0 cells, difference of RQ values
Description: as §1

[5] = EAC cells treated, GAPDH housekeeping gene
[6] = EAC cells, difference of RQ values

NC(=S)N[N-][CH+]c1ccc([N+](=O)[O-])cc1 [4-NBTSc, 4-Nitrobenzaldehyde thiosemicarbazone]
BCl2 Treated (RQ value) [1, 5]: 6.195 ± 0.021 | BRCA1 Treated (RQ value) [1, 5]: 7.195 ± 0.021 | Bax Treated (RQ value) [1, 5]: 2.945 ± 0.035 | Caspase-3 Treated (RQ value) [1, 5]: 4.23 ± 0.028 | Dmp1 Treated (RQ value) [1, 5]: 4.1 ± 0.014 | Fos Treated (RQ value) [1, 5]: 3.095 ± 0.021 | MTS 1 Treated (RQ value) [1, 5]: 1.945 ± 0.035 | Mdm2 Treated (RQ value) [1, 5]: 4.955 ± 0.021 | PKC Treated (RQ value) [1, 5]: 7.13 ± 0.028 | PTEN Treated (RQ value) [1, 5]: 8.65 ± 0.028 | RAS Treated (RQ value) [1, 5]: 3.13 ± 0.028 | p19 Arf Treated (RQ value) [1, 5]: 4.605 ± 0.021 | p21 Treated (RQ value) [1, 5]: 3.125 ± 0.035 | p53 Treated (RQ value) [1, 5]: 3.165 ± 0.064 | pRB Treated (RQ value) [1, 5]: 6.095 ± 0.035 | BCl2 Fold Change (EAC treated-EAC untreated) [1, 6]: 3.105 fold | BRCA1 Fold Change (EAC treated-EAC untreated) [1, 6]: 5.135 fold and 5.13 fold | Bax Fold Change (EAC treated-EAC untreated) [1, 6]: -0.105 fold | Caspase-3 Fold Change (EAC treated-EAC untreated) [1, 6]: 1.33 fold | Dmp1 Fold Change (EAC treated-EAC untreated) [1, 6]: 1.95 fold | MTS 1 Fold Change (EAC treated-EAC untreated) [1, 6]: 0.04 fold | Mdm2 Fold Change (EAC treated-EAC untreated) [1, 6]: -0.25 fold | PTEN Fold Change (EAC treated-EAC untreated) [1, 6]: 7.42 fold | p19 Arf Fold Change (EAC treated-EAC untreated) [1, 6]: 1.855 fold | p21 Fold Change (EAC treated-EAC untreated) [1, 6]: 2.13 fold | p53 Fold Change (EAC treated-EAC untreated) [1, 6]: 2.105 fold | pRB Fold Change (EAC treated-EAC untreated) [1, 6]: 4.19 fold | viability at 48 h [2]: > 80% | toxicity [3]: less than 20% | BCl2 Treated (RQ value) [4]: 2.36 ± 0.028 | BRCA1 Treated (RQ value) [4]: 1.94 ± 0.028 | Bax Treated (RQ value) [4]: 6.09 ± 0.028 | Caspase-3 Treated (RQ value) [4]: 5.215 ± 0.021 | Dmp1 Treated (RQ value) [4]: 7.19 ± 0.028 | Fos Treated (RQ value) [4]: 2.905 ± 0.021 | MTS 1 Treated (RQ value) [4]: 4.865 ± 0.021 | Mdm2 Treated (RQ value) [4]: 6.1 ± 0.014 | PKC Treated (RQ value) [4]: 7.14 ± 0.028 | PTEN Treated (RQ value) [4]: 6.97 ± 0.014 | RAS Treated (RQ value) [4]: 4.145 ± 0.035 | p19 Arf Treated (RQ value) [4]: 3.145 ± 0.035 | p21 Treated (RQ value) [4]: 4.12 ± 0.014 | p53 Treated (RQ value) [4]: 3.185 ± 0.021 | pRB Treated (RQ value) [4]: 1.06 ± 0.085 | BCl2 Fold Change (B16-F0 treated-B16-F0 untreated) [4]: 0.27 fold | BRCA1 Fold Change (B16-F0 treated-B16-F0 untreated) [4]: 0.14 fold | Bax Fold Change (B16-F0 treated-B16-F0 untreated) [4]: 3.355 fold and 3.35 fold | Caspase-3 Fold Change (B16-F0 treated-B16-F0 untreated) [4]: 2.615 fold | Dmp1 Fold Change (B16-F0 treated-B16-F0 untreated) [4]: 4.7 fold | MTS 1 Fold Change (B16-F0 treated-B16-F0 untreated) [4]: 2.93 fold | Mdm2 Fold Change (B16-F0 treated-B16-F0 untreated) [4]: -1.14 fold | PTEN Fold Change (B16-F0 treated-B16-F0 untreated) [4]: 4.825 fold and 4.82 fold | p19 Arf Fold Change (B16-F0 treated-B16-F0 untreated) [4]: 1.81 fold | p21 Fold Change (B16-F0 treated-B16-F0 untreated) [4]: 1.93 fold | p53 Fold Change (B16-F0 treated-B16-F0 untreated) [4]: 1.025 fold | pRB Fold Change (B16-F0 treated-B16-F0 untreated) [4]: -0.54 fold

COc1cccc(C=NNC(N)=S)c1 [3-MBTSc, 3-Methoxybenzaldehyde thiosemicarbazone]
BCl2 Treated (RQ value) [1, 5]: 7.195 ± 0.021 | BRCA1 Treated (RQ value) [1, 5]: 4.305 ± 0.021 | Bax Treated (RQ value) [1, 5]: 5.195 ± 0.021 | Caspase-3 Treated (RQ value) [1, 5]: 3.095 ± 0.035 | Dmp1 Treated (RQ value) [1, 5]: 6.9 ± 0.028 | Fos Treated (RQ value) [1, 5]: 4.22 ± 0.014 | MTS 1 Treated (RQ value) [1, 5]: 1.1 ± 0.028 | Mdm2 Treated (RQ value) [1, 5]: 4.145 ± 0.035 | PKC Treated (RQ value) [1, 5]: 7.105 ± 0.021 | PTEN Treated (RQ value) [1, 5]: 4.205 ± 0.035 | RAS Treated (RQ value) [1, 5]: 3.215 ± 0.021 | p19 Arf Treated (RQ value) [1, 5]: 4.73 ± 0.028 | p21 Treated (RQ value) [1, 5]: 5.19 ± 0.028 | pRB Treated (RQ value) [1, 5]: 3.575 ± 0.021 | BCl2 Fold Change (EAC treated-EAC untreated) [1, 6]: 4.105 fold | BRCA1 Fold Change (EAC treated-EAC untreated) [1, 6]: 2.245 fold | Bax Fold Change (EAC treated-EAC untreated) [1, 6]: 2.145 fold | Caspase-3 Fold Change (EAC treated-EAC untreated) [1, 6]: 0.195 fold | Dmp1 Fold Change (EAC treated-EAC untreated) [1, 6]: 4.75 fold | Fos Fold Change (EAC treated-EAC untreated) [1, 6]: -3.92 fold | MTS 1 Fold Change (EAC treated-EAC untreated) [1, 6]: -0.805 fold | Mdm2 Fold Change (EAC treated-EAC untreated) [1, 6]: -1.06 fold | PKC Fold Change (EAC treated-EAC untreated) [1, 6]: -3.03 fold | PTEN Fold Change (EAC treated-EAC untreated) [1, 6]: 2.975 fold | RAS Fold Change (EAC treated-EAC untreated) [1, 6]: -3.725 fold | p19 Arf Fold Change (EAC treated-EAC untreated) [1, 6]: 1.98 fold | p21 Fold Change (EAC treated-EAC untreated) [1, 6]: 4.195 fold | p53 Fold Change (EAC treated-EAC untreated) [1, 6]: 2.1 fold | pRB Fold Change (EAC treated-EAC untreated) [1, 6]: 1.67 fold | viability at 48 h [2]: > 80% | toxicity [3]: less than 20% | BCl2 Treated (RQ value) [4]: 2.14 ± 0.028 | BRCA1 Treated (RQ value) [4]: 1.14 ± 0.028 | Bax Treated (RQ value) [4]: 3.095 ± 0.021 | Caspase-3 Treated (RQ value) [4]: 6.105 ± 0.021 | Dmp1 Treated (RQ value) [4]: 5.19 ± 0.028 | Fos Treated (RQ value) [4]: 3.135 ± 0.021 | MTS 1 Treated (RQ value) [4]: 6.14 ± 0.042 | Mdm2 Treated (RQ value) [4]: 5.105 ± 0.021 | PKC Treated (RQ value) [4]: 5.13 ± 0.028 | PTEN Treated (RQ value) [4]: 4.94 ± 0.028 | RAS Treated (RQ value) [4]: 4.16 ± 0.028 | p19 Arf Treated (RQ value) [4]: 5.125 ± 0.021 | p21 Treated (RQ value) [4]: 5.115 ± 0.021 | p53 Treated (RQ value) [4]: 5.185 ± 0.035 | pRB Treated (RQ value) [4]: 1.105 ± 0.007 | BCl2 Fold Change (B16-F0 treated-B16-F0 untreated) [4]: 0.050 fold | BRCA1 Fold Change (B16-F0 treated-B16-F0 untreated) [4]: -0.660 fold | Bax Fold Change (B16-F0 treated-B16-F0 untreated) [4]: 0.360 fold | Caspase-3 Fold Change (B16-F0 treated-B16-F0 untreated) [4]: 3.505 fold and 3.50 fold | Dmp1 Fold Change (B16-F0 treated-B16-F0 untreated) [4]: 2.700 fold | MTS 1 Fold Change (B16-F0 treated-B16-F0 untreated) [4]: 4.205 fold | Mdm2 Fold Change (B16-F0 treated-B16-F0 untreated) [4]: -2.135 fold | PTEN Fold Change (B16-F0 treated-B16-F0 untreated) [4]: 2.795 fold | p19 Arf Fold Change (B16-F0 treated-B16-F0 untreated) [4]: 3.790 fold | p21 Fold Change (B16-F0 treated-B16-F0 untreated) [4]: 2.925 fold | p53 Fold Change (B16-F0 treated-B16-F0 untreated) [4]: 3.025 fold | pRB Fold Change (B16-F0 treated-B16-F0 untreated) [4]: -0.495 fold
